According to US11168073B2, “3,3-difluoroallylamines or salts thereof and pharmaceutical compositions comprising the same” (YUHAN CORPORATION, priority 2018, dated 2021):
Where a name gives a salt, the structure may show the parent alone. Read-outs that look alike come from different tables or passages of the source.

Experiments:
Type in all cases: biochemical
[1] = target: T1, recombinant human DAO (diamine oxidase) (Homo sapiens, UniProt P19801); assay: Activity evaluation on recombinant human DAO (Amplex Red/HRP-coupled assay, 1 mM putrescine substrate); conditions: read-out: Inhibitory Activity (IC50, nM) DAO
T1 construct: purchased R&D systems
T1 sequence (P19801 20-751): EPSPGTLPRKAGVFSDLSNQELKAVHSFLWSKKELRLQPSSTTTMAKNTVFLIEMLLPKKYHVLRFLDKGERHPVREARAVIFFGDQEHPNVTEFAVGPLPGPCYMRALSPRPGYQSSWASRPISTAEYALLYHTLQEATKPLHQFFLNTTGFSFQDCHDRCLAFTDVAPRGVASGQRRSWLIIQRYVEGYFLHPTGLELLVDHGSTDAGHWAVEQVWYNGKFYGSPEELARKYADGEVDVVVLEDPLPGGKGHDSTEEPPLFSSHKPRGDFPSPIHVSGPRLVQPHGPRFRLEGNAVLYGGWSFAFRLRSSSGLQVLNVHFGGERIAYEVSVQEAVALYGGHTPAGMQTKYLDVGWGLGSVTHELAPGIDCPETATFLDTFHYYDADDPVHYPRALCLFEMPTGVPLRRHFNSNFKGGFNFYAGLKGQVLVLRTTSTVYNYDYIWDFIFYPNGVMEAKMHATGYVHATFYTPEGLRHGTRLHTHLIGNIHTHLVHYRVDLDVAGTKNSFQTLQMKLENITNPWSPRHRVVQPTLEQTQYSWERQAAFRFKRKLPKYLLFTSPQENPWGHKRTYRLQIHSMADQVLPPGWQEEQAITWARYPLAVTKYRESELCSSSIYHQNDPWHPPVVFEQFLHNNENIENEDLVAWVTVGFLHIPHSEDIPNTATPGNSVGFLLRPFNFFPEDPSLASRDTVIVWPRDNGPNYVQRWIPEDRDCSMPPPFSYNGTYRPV
Summary of the method: (§1)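 Enzyme was preincubated with compounds (8-point 1:3 series, final DMSO <1%) 30 min at 37 °C in 50 mM sodium phosphate pH 7.4, then given 200 uM Amplex Red and 1 U/mL HRP with substrate. H2O2-derived resorufin fluorescence (ex 544/em 590 nm) was followed over 1–2 h; IC50 came from 4-parameter logistic fits of signal-rate inhibition versus DMSO control.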

[2] = target: T2, recombinant human VAP-1 (Homo sapiens, UniProt Q16853); assay: Activity evaluation on recombinant human VAP-1 (Amplex Red/HRP-coupled hydrogen peroxide assay, benzylamine substrate); conditions: read-out: Inhibitory Activity (IC50, nM) human VAP-1
T2 construct: purchased R&D systems
T2 sequence (Q16853 1-763): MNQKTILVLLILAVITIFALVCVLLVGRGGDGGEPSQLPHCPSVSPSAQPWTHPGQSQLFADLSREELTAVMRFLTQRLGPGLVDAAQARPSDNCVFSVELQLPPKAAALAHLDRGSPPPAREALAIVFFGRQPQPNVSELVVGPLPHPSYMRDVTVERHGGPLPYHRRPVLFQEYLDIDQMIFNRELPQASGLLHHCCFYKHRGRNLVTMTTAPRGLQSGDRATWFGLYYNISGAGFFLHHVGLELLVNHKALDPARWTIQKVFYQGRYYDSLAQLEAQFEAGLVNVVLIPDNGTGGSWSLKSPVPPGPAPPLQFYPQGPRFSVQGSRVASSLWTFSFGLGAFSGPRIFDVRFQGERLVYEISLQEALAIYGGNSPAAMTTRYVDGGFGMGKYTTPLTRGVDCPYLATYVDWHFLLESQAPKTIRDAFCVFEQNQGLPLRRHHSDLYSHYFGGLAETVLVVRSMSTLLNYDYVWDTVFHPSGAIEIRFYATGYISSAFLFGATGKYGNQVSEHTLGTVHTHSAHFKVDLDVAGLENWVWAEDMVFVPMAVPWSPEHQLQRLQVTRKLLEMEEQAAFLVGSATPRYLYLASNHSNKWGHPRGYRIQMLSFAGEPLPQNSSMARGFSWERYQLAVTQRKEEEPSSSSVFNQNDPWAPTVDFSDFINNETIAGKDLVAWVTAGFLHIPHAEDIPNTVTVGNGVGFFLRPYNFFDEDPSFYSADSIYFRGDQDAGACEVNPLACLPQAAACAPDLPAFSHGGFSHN
Summary of the method: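 Recombinant human VAP-1 in 50 mM sodium phosphate pH 7.4 preincubated 30 min at 37 °C with compound (8-point 1:3 series, <1% DMSO), then 1 mM benzylamine, 200 uM Amplex Red, 1 U/mL HRP added. H2O2-derived resorufin fluorescence (ex 544/em 590) followed 1–2 h; IC50 from four-parameter fit of rate inhibition.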

[3] = target: T3, recombinant human MAO-A (monoamine oxidase-A) (Homo sapiens, UniProt P21397); assay: Activity evaluation on recombinant human MAO-A (Amplex Red/HRP-coupled assay, 0.5 mM tyramine substrate); conditions: read-out: Inhibitory Activity (IC50, nM) MAO-A
T3 construct: purchased Sigma-Aldrich
T3 sequence (P21397 1-527): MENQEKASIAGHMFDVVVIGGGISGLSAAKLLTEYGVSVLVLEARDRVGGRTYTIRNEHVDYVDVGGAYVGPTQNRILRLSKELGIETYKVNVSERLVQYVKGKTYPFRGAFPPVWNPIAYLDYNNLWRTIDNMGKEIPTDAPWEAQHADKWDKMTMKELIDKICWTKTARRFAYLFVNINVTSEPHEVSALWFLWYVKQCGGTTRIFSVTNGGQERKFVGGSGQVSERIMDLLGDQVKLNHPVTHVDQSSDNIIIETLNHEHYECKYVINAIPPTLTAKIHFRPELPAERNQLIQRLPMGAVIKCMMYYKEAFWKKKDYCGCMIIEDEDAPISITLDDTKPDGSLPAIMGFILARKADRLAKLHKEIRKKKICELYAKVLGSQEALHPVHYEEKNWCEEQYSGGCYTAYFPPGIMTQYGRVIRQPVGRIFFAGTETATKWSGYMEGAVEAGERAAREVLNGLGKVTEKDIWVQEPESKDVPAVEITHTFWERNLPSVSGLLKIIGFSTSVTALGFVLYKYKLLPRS
Summary of the method: as §1

[4] = target: T4, recombinant human MAO-B (monoamine oxidase-B) (Homo sapiens, UniProt P27338); assay: Activity evaluation on recombinant human MAO-B (Amplex Red/HRP-coupled assay, 1 mM benzylamine substrate); conditions: read-out: Inhibitory Activity (IC50, nM) MAO-B
T4 construct: purchased Sigma-Aldrich
T4 sequence (P27338 1-520): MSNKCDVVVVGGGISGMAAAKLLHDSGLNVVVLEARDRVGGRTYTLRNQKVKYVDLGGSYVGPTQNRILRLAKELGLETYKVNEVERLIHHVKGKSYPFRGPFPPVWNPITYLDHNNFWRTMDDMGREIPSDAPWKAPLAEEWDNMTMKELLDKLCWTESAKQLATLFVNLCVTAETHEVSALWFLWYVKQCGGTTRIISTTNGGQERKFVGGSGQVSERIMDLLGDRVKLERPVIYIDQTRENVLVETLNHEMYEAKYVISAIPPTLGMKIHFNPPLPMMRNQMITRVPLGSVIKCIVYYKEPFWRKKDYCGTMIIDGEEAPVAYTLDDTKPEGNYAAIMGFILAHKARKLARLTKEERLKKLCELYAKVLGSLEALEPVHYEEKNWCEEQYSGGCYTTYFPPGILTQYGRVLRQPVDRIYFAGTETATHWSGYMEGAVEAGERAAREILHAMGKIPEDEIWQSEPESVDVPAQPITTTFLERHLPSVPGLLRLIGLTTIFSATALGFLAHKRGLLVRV
Summary of the method: as §1

[5] = recombinant human VAP-1, benzylamine substrate
[6] = recombinant human VAP-1, 30 min preincubation at 37° C., 1 mM benzylamine

IC50 ([1]; 1 mM putrescine substrate)	IC50 [2, 5]	IC50 ([3]; 0.5 mM tyramine substrate)	IC50 ([4]; 1 mM benzylamine substrate)	IC50 ([1]; 1 mM putrescine)	IC50 [2, 6]	IC50 ([3]; 0.5 mM tyramine)	IC50 ([4]; 1 mM benzylamine)	SMILES
6700 nM	0.8 nM	> 100000 nM	> 100000 nM	–	–	–	–	Cc1cc(-c2ccc(C(=O)N3CCOCC3)cc2)cnc1-n1cnn(CC(CN)=C(F)F)c1=O [Example 236, 2-[2-(aminomethyl)-3,3-difluoro-allyl]-4-[3-methyl-5-[4-(morpholine-4-carbonyl)phenyl]-2-pyridyl]-1,2,4-triazol-3-one Trifluoroacetate]
11000 nM	2.7 nM	> 100000 nM	14000 nM	–	–	–	–	Cc1cc(-c2cccc(-c3nc[nH]n3)c2)cnc1-n1cnn(CC(CN)=C(F)F)c1=O [Example 239, 2-[2-(aminomethyl)-3,3-difluoro-allyl]-4-[3-methyl-5-[3-(1H-1,2,4-triazol-3-yl)phenyl]-2-pyridyl]-1,2,4-triazol-3-one trifluoroacetate]
310 nM	0.14 nM	> 100000 nM	1800 nM	–	–	–	–	Cc1cc(-c2ccc(S(=O)(=O)N(C)C)cc2)cnc1-n1cnn(CC(CN)=C(F)F)c1=O [Example 238, 4-[6-[1-[2-(aminomethyl)-3,3-difluoro-allyl]-5-oxo-1,2,4-triazol-4-yl]-5-methyl-3-pyridyl]-N,N-dimethyl-benzenesulfonamide trifluoroacetate]
6160 nM	0.6 nM	> 100000 nM	3450 nM	–	–	–	–	CCn1cc(-c2cccc(-c3cnc(-n4cnn(CC(CN)=C(F)F)c4=O)c(C)c3)c2)cn1 [Example 291, 2-[2-(aminomethyl)-3,3-difluoro-allyl]-4-[5-[3-(1-ethylpyrazol-4-yl)phenyl]-3-methyl-2-pyridyl]-1,2,4-triazol-3-one Trifluoroacetate]
35000 nM	2.3 nM	> 100000 nM	> 100000 nM	–	–	–	–	Cc1c(-c2ccc(C(F)(F)F)nc2)cccc1-n1cnn(CC(CN)=C(F)F)c1=O [Example 255, 2-[2-(aminomethyl)-3,3-difluoro-allyl]-4-[2-methyl-3-[6-(trifluoromethyl)-3-pyridyl]phenyl]-1,2,4-triazol-3-one Trifluoroacetate]
2400 nM	0.8 nM	> 100000 nM	18000 nM	–	–	–	–	CS(=O)(=O)c1ccc(-c2ccc3cc(Cn4cnn(CC(CN)=C(F)F)c4=O)sc3c2)cc1 [Example 197, 2-[2-(aminomethyl)-3,3-difluoro-allyl]-4-[[6-(4-methylsulfonylphenyl)benzothiophen-2-yl]methyl]-1,2,4-triazol-3-one trifluoroacetate]
4200 nM	0.3 nM	> 100000 nM	44000 nM	–	–	–	–	NCC(Cn1ncn(Cc2cc(-c3ccc4c(c3)COC(=O)N4)cs2)c1=O)=C(F)F [Example 191, 6-[5-[[1-[2-(aminomethyl)-3,3-difluoro-allyl]-5-oxo-1,2,4-triazol-4-yl]methyl]-3-thienyl]-1,4-dihydro-3,1-benzoxazin-2-one Trifluoroacetate]
–	–	–	–	> 10000 nM	0.8 nM	> 100000 nM	> 100000 nM	Cc1cc(-c2cccc(-n3cnn(CC(CN)=C(F)F)c3=O)c2)cc2c1NC(=O)CC2 [Example 22, 6-[3-[1-[2-(aminomethyl)-3,3-difluoro-allyl]-5-oxo-1,2,4-triazol-4-yl]phenyl]-8-methyl-3,4-dihydro-1H-quinolin-2-one Trifluoroacetate]
8900 nM	1.1 nM	> 100000 nM	> 100000 nM	–	–	–	–	CC(C)n1cc(-c2csc(Cn3cnn(CC(CN)=C(F)F)c3=O)c2)ccc1=O [Example 187, 5-[5-[[1-[2-(aminomethyl)-3,3-difluoro-allyl]-5-oxo-1,2,4-triazol-4-yl]methyl]-3-thienyl]-1-isopropyl-pyridin-2-one Trifluoroacetate]
–	–	–	–	1100 nM	4.6 nM	> 100000 nM	38000 nM	NCC(Cn1ncn(-c2cnc(Br)cn2)c1=O)=C(F)F [Example 16, 2-[2-(aminomethyl)-3,3-difluoro-allyl]-4-(5-bromopyrazin-2-yl)-1,2,4-triazol-3-one Trifluoroacetate]
12600 nM	0.7 nM	> 100000 nM	> 100000 nM	–	–	–	–	Cc1cc(-c2cc(F)c(Cn3cnn(CC(CN)=C(F)F)c3=O)s2)cc2c1NC(=O)CC2 [Example 304, 6-(5-((1-(2-(aminomethyl)-3,3-difluoroallyl)-5-oxo-1,5-dihydro-4H-1,2,4-triazol-4-yl)methyl)-4-fluorothiophen-2-yl)-8-methyl-3,4-dihydroquinolin-2(1H)-one Trifluoroacetate]
15000 nM	1.7 nM	> 100000 nM	1100 nM	–	–	–	–	NCC(Cn1ncn(Cc2cc3ccc(-c4ccc(C(F)(F)F)nc4)cc3s2)c1=O)=C(F)F [Example 199, 2-[2-(aminomethyl)-3,3-difluoro-allyl]-4-[[6-[6-(trifluoromethyl)-3-pyridyl]benzothiophen-2-yl]methyl]-1,2,4-triazol-3-one Trifluoroacetate]
